Active and inactive are the calls of the source. The rule behind the calls is not given here.
Assays:
[1] = target: Acetylcholinesterase (Electrophorus electricus, UniProt O42275)
Description: Inhibition of electric eel acetylcholinesterase using acetylthiocholine chloride as substrate preincubated for 15 mins followed by substrate addition by Ellman's method

[2] = target: Cholinesterase (Equus caballus, UniProt P81908)
Description: Inhibition of equine serum butyrylcholinesterase using butyrylthiocholine chloride as substrate preincubated for 15 mins followed by substrate addition by Ellman's method

[3] = target: Acetylcholinesterase (Homo sapiens, UniProt P22303); experiment: Inhibition of human erythrocyte acetylcholinesterase using acetylthiocholine chloride as substrate preincubated for 15 mins followed by substrate addition by Ellman's method
[4] = GPx-like activity of the compound using GSH/1.6 mM H2O2 as substrate assessed as GSH-mediated H2O2 reduction at 80 uM at pH 7.5 measured for 10 secs by spectrophotometric analysis; assay type: physicochemical; conditions: pH 7.5, 10 s
[5] = GPx-like activity of the compound using GSH/variable H2O2 as substrate assessed as catalytic efficiency by Lineweaver-burk plot analysis; assay type: physicochemical
[6] = GPx-like activity of the compound using GSH/variable H2O2 as substrate by Lineweaver-burk plot analysis; assay type: physicochemical
[7] = Antioxidant activity assessed as H2O2 scavenging activity at 50 to 200 uM after 10 hrs by ferrous ion oxidation-xylenol orange assay; assay type: functional
[8] = GPx-like activity of the compound using 1.5 mM GSH/H2O2 as substrate assessed as GSH-mediated H2O2 reduction at 80 uM at pH 7.5 measured for 10 secs by spectrophotometric analysis; assay type: physicochemical; conditions: pH 7.5, 10 s
[9] = GPx-like activity of the compound using GSH/1.2 mM H2O2 as substrate assessed as GSH-mediated H2O2 reduction at 80 uM at pH 7.5 measured for 10 secs by spectrophotometric analysis; assay type: physicochemical; conditions: pH 7.5, 10 s
[10] = GPx-like activity of the compound using 1 mM GSH/H2O2 as substrate assessed as GSH-mediated H2O2 reduction at 80 uM at pH 7.5 measured for 10 secs by spectrophotometric analysis; assay type: physicochemical; conditions: pH 7.5, 10 s
[11] = GPx-like activity of the compound using 2 mM GSH/H2O2 as substrate assessed as GSH-mediated H2O2 reduction at 80 uM at pH 7.5 measured for 10 secs by spectrophotometric analysis; assay type: physicochemical; conditions: pH 7.5, 10 s
[12] = GPx-like activity of the compound using GSH/1.4 mM H2O2 as substrate assessed as GSH-mediated H2O2 reduction at 80 uM at pH 7.5 measured for 10 secs by spectrophotometric analysis; assay type: physicochemical; conditions: pH 7.5, 10 s
[13] = GPx-like activity of the compound using 4 mM GSH/H2O2 as substrate assessed as GSH-mediated H2O2 reduction at 80 uM at pH 7.5 measured for 10 secs by spectrophotometric analysis; assay type: physicochemical; conditions: pH 7.5, 10 s
[14] = GPx-like activity of the compound using GSH/0.8 mM H2O2 as substrate assessed as GSH-mediated H2O2 reduction at 80 uM at pH 7.5 measured for 10 secs by spectrophotometric analysis; assay type: physicochemical; conditions: pH 7.5, 10 s
[15] = GPx-like activity of the compound using variable GSH/H2O2 as substrate by Lineweaver-burk plot analysis; assay type: physicochemical
[16] = GPx-like activity of the compound using GSH/1 mM H2O2 as substrate assessed as GSH-mediated H2O2 reduction at 80 uM at pH 7.5 measured for 10 secs by spectrophotometric analysis; assay type: physicochemical; conditions: pH 7.5, 10 s
[17] = GPx-like activity of the compound using 3 mM GSH/H2O2 as substrate assessed as GSH-mediated H2O2 reduction at 80 uM at pH 7.5 measured for 10 secs by spectrophotometric analysis; assay type: physicochemical; conditions: pH 7.5, 10 s
[18] = GPx-like activity of the compound using variable GSH/H2O2 as substrate assessed as catalytic efficiency by Lineweaver-burk plot analysis; assay type: physicochemical

Sequence of Acetylcholinesterase (Homo sapiens, UniProt P22303) (P22303 whole entry): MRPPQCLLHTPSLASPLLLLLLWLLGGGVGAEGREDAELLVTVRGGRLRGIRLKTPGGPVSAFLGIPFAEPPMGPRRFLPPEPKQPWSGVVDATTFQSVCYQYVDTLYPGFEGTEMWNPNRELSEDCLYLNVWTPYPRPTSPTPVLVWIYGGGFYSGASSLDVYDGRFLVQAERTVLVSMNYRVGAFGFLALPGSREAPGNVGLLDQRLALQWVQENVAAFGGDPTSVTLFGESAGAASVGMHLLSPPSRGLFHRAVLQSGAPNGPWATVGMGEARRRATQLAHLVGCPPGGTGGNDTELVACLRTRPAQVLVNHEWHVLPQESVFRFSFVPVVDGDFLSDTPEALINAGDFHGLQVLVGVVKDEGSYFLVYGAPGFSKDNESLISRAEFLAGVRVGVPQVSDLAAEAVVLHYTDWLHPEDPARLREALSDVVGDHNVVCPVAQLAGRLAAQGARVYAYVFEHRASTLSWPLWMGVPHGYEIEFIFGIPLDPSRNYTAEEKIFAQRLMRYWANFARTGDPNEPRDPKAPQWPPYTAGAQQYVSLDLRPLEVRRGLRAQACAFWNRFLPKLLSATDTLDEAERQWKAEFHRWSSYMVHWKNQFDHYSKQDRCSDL
Sequence of Cholinesterase (P81908 whole entry): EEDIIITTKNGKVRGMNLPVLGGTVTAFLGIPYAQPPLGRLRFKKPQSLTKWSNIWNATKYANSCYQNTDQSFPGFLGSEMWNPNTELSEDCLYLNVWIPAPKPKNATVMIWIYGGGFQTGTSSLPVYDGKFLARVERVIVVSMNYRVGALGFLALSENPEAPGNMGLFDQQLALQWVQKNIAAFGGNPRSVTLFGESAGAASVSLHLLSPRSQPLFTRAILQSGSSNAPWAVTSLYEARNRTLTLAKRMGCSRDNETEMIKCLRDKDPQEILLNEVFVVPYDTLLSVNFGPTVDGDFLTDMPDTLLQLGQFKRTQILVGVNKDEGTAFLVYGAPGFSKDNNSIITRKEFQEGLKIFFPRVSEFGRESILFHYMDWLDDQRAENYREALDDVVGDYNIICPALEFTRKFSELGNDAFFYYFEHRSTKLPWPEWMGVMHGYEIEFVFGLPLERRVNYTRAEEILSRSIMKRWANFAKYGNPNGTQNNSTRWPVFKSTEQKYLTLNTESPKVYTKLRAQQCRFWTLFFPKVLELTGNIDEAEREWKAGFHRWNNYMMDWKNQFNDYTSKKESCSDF
Sequence of Acetylcholinesterase (Electrophorus electricus, UniProt O42275) (O42275 whole entry): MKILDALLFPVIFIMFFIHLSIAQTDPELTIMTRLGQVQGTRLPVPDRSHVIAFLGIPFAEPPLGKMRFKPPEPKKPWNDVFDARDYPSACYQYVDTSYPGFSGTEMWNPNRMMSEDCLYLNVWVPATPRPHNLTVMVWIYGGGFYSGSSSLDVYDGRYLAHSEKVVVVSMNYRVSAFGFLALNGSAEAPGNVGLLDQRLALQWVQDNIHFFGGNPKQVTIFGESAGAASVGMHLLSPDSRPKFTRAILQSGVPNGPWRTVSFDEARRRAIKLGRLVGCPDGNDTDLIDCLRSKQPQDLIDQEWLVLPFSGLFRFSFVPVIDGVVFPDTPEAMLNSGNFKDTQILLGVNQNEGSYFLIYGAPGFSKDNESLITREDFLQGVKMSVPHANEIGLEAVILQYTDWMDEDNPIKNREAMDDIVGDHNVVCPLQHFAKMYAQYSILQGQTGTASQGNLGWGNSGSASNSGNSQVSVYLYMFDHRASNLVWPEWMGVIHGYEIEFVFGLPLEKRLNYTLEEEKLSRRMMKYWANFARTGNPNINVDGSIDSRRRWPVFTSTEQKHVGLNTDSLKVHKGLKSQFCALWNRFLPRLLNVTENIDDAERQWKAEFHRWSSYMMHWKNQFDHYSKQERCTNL

Compound | IC50 [1] | IC50 [2] | IC50 [3] | Activity [4] | Activity [5] | Kcat [6] | Vmax [6] | Activity [7] | Activity [8] | Activity [9] | Activity [10] | Activity [11] | Activity [12] | Activity [13] | Activity [14] | Kcat [15] | Vmax [15] | Activity [16] | Activity [17] | Activity [18]
COc1cc2[se]n(-c3ccc(OCCCN4CCCCC4)cc3)c(=O)c2cc1OC | 4.5 µM | 5.8 µM | 5.15 µM | – | – | – | – | – | – | – | – | – | – | – | – | – | – | – | – | –
COc1cc2[se]n(-c3ccc(CN4CCCC4)cc3)c(=O)c2cc1OC | 1.06 µM | 13.4 µM | 4.31 µM | – | – | – | – | – | – | – | – | – | – | – | – | – | – | – | – | –
COc1cc2[se]n(-c3ccc(OCCCCN4CCCCC4)cc3)c(=O)c2cc1OC | 4.32 µM | 5.72 µM | 3.41 µM | – | – | – | – | – | – | – | – | – | – | – | – | – | – | – | – | –
COc1cc2[se]n(-c3ccc(CCN4CCCC4)cc3)c(=O)c2cc1OC | 4.32 µM | > 15 µM | 13.9 µM | – | – | – | – | – | – | – | – | – | – | – | – | – | – | – | – | –
COc1cc2[se]n(-c3ccc(CCN4CCCCC4)cc3)c(=O)c2cc1OC | 3.87 µM | > 15 µM | 10.5 µM | – | – | – | – | – | – | – | – | – | – | – | – | – | – | – | – | –
O=c1c2ccccc2[se]n1-c1ccc(CCN2CCCC2)cc1 | > 15 µM | 6.38 µM | > 15 µM | – | – | – | – | – | – | – | – | – | – | – | – | – | – | – | – | –
COc1cc2[se]n(-c3ccc(OCCN4CCCCC4)cc3)c(=O)c2cc1OC | 0.46 µM | 9.69 µM | 0.45 µM | 122.64 µM/min | 0.74 mM⁻¹ min⁻¹ | 0.066 s⁻¹ | 316.46 µM/min | Active | 110.89 µM/min | 98.87 µM/min | 77.43 µM/min | 126.72 µM/min | 109.83 µM/min | 164.86 µM/min | 53.36 µM/min | 0.0577 s⁻¹ | 276.24 µM/min | 76.93 µM/min | 150.13 µM/min | 1.4 mM⁻¹ min⁻¹
O=c1c2ccccc2[se]n1-c1ccccc1 [EBSELEN] | > 15 µM | 10.6 µM | > 15 µM | 125.93 µM/min | 2.85 mM⁻¹ min⁻¹ | 0.0393 s⁻¹ | 188.68 µM/min | Active | 130.27 µM/min | 107.82 µM/min | 88.35 µM/min | 152.18 µM/min | 119.01 µM/min | 183.19 µM/min | 92.43 µM/min | 0.0642 s⁻¹ | 307.69 µM/min | 105.89 µM/min | 166.44 µM/min | 1.64 mM⁻¹ min⁻¹
COc1cc2[se]n(-c3ccc(CN4CCCCC4)cc3)c(=O)c2cc1OC | 0.76 µM | > 15 µM | 1.44 µM | 150.53 µM/min | 1.45 mM⁻¹ min⁻¹ | 0.1812 s⁻¹ | 869.57 µM/min | Active | 130.27 µM/min | 121.72 µM/min | 88.35 µM/min | 147.84 µM/min | 132.29 µM/min | 185.66 µM/min | 81.43 µM/min | 0.0643 s⁻¹ | 308.64 µM/min | 109.44 µM/min | 166.44 µM/min | 1.63 mM⁻¹ min⁻¹
O=c1c2ccccc2[se]n1-c1ccc(OCCN2CCCCC2)cc1 | 5.66 µM | 1.97 µM | 10.9 µM | – | – | – | – | – | – | – | – | – | – | – | – | – | – | – | – | –
COc1cc2[se]n(-c3ccc(CN(C)Cc4ccccc4)cc3)c(=O)c2cc1OC | 1.71 µM | 3.62 µM | > 15 µM | – | – | – | – | – | – | – | – | – | – | – | – | – | – | – | – | –
O=c1c2ccccc2[se]n1-c1ccc(CN2CCCCC2)cc1 | 2.36 µM | 5.56 µM | 10.8 µM | – | – | – | – | – | – | – | – | – | – | – | – | – | – | – | – | –
